Measurements reported in BigSolDB 2.1.

CC1=C[C@H](O)CC(C)(C)[C@H]1/C=C/C(C)=C/C=C/C(C)=C/C=C/C=C(C)/C=C/C=C(C)/C=C/C1=C(C)C[C@@H](O)CC1(C)C
solubility (mole fraction)
Conditions | 278.15 K | 283.15 K | 288.15 K | 293.15 K | 298.15 K | 303.15 K | 308.15 K | 313.15 K | 318.15 K | 323.15 K
in ethanol | 1.75e-05 | 1.96e-05 | 2.27e-05 | 2.63e-05 | 3.16e-05 | 3.75e-05 | 4.48e-05 | 5.32e-05 | 6.42e-05 | 7.72e-05
in ethylene glycol | 2.68e-07 | 3.03e-07 | 3.48e-07 | 3.89e-07 | 4.43e-07 | 5.17e-07 | 6.12e-07 | 7.13e-07 | 8.45e-07 | 9.61e-07
in isopropanol | 9.74e-07 | 1.03e-06 | 1.1e-06 | 1.18e-06 | 1.27e-06 | 1.39e-06 | 1.51e-06 | 1.67e-06 | 1.86e-06 | 2.13e-06
in methanol | 2.31e-05 | 2.84e-05 | 3.77e-05 | 4.91e-05 | 6.72e-05 | 8.41e-05 | 0.000107 | 0.000134 | 0.000166 | 0.000207
